Data on 16 compounds can be found in US20260274832A1, “COMPOUNDS AND THEIR USE IN TREATING CANCER” (ASTRAZENECA AB, priority 2023, published 2026).

Experiment [1] concerns the target T1, AR (AR-full length) in LNCaP cells (Homo sapiens, UniProt P10275, T878A).
T1 construct: the prostate cancer cell line LNCaP (expressing AR-full length); endogenous in cells; host or cells: LNCaP
Description: LNCaP Androgen Receptor Imaging Assay (immunofluorescence of endogenous nuclear AR). Type of experiment: cell-based. The conditions noted are these: 24 h incubation; for DC50: concentration giving 50% of maximum degradation of AR per curve fit, single experiment or average of two or more; for Dmax: LNCaP, maximum degradation observed, normalized as % of positive control (prior art AR PROTAC at 3 μM). In short, it runs like this:
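LNCaP cells (12,000/well) received a 12-point compound dose series (0.3% DMSO) for 24 h at 37° C., then were PFA-fixed and stained for AR (AR441) and nuclei (DRAQ5). Nuclear AR was quantified by imaging, normalized to a 3 μM AR PROTAC control; DC50 and Dmax came from Hill/bell curve fits.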

Experiment [2] deals with T2, AR (L702H) in LNCaP cells (Homo sapiens, UniProt P10275, L702H/T878A).
T2 construct: engineered to introduce the mutation L702H into the AR gene using CRISPR/Cas9; endogenous in cells; host or cells: LNCaP cells edited by CRISPR/Cas9 at the AR gene
T2 sequence (P10275 whole entry L702H/T878A): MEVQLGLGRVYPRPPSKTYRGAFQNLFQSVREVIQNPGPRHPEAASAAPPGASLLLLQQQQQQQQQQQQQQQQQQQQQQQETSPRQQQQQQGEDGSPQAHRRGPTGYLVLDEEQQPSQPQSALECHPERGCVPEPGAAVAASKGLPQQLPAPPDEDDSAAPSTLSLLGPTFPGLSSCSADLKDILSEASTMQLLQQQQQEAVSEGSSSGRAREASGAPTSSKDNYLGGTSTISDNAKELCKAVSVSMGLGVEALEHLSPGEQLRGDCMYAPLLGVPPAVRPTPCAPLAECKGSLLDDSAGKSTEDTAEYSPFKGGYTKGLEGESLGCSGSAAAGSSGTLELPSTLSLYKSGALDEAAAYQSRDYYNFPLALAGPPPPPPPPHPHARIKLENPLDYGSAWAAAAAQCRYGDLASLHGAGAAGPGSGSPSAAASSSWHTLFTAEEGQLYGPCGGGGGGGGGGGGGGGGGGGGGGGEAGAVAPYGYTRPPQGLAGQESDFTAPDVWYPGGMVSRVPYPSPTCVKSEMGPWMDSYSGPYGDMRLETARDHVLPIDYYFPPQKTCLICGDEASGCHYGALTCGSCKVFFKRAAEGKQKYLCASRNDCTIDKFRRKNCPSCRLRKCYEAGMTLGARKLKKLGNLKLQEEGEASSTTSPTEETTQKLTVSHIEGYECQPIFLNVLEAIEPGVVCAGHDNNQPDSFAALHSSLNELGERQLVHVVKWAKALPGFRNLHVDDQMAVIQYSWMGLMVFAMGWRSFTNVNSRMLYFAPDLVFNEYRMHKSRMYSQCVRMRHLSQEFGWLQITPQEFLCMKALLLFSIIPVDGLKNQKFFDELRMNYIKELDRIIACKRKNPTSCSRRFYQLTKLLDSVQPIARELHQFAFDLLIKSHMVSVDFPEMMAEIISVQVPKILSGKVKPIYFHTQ
T2 sequence (Q96SW2 whole entry partner): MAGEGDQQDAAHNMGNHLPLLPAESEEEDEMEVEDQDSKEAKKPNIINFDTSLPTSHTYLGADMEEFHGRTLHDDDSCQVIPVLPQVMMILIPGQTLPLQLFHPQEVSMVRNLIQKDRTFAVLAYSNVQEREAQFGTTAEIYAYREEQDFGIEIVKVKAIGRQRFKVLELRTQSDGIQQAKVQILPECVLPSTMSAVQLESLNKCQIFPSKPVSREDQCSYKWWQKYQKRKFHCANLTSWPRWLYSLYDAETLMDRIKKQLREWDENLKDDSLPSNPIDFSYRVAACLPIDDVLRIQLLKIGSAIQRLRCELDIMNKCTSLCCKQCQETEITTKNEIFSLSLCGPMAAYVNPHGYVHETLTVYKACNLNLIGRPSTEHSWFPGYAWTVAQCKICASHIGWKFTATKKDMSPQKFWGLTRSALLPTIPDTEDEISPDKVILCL
Description: LNCaP Androgen Receptor L702H Imaging Assay (LNCaP cells engineered by CRISPR/Cas9). Type of experiment: cell-based. The conditions noted are these: LNCaP cells with AR L702H mutation, 24 h incubation; for DC50: concentration giving 50% of maximum degradation of AR (L702H) per curve fit; for Dmax: LNCaP, maximum degradation observed, normalized as % of positive control. In short, it runs like this:
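CRISPR-engineered LNCaP cells carrying AR L702H were treated 24 h at 37 °C with a 12-point compound dose response (0.3% DMSO), then fixed and immunostained for AR with DRAQ5 nuclear counterstain. Nuclear AR was quantified by imaging, normalized to positive control; DC50 and Dmax came from Hill or bell-shaped fits.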

T1 sequence (P10275 whole entry T878A): as the sequence (P10275 whole entry L702H/T878A) above, with H702L counted along it
T1 sequence (Q96SW2 whole entry partner): as the sequence (Q96SW2 whole entry partner) above

A word on the DC50: it is the concentration at which degradation of the target reaches its halfway point. For orientation: Dmax means the greatest extent of degradation seen. Take `N#Cc1c[nH]c2c(N3CCC[C@@H](c4ccc(N5CCC(CN6CCC(n7ccc8c(N9CCC(=O)NC9=O)cccc87)CC6)CC5)cc4)C3)ccc(Cl)c12` [Example 11]: in experiment [1], the DC50 came to 9 nM and the Dmax amounted to 102%. In addition, in experiment [2], the DC50 was found to be 18 nM and the Dmax is 105%.
Taken in the same sequence, the figures for `N#Cc1c[nH]c2c(N3CCC[C@@H](c4ccc(N5CCC(CN6CCN(c7ccc8c(c7)CN(C7CCC(=O)NC7=O)C8=O)CC6)CC5)cc4)C3)ccc(Cl)c12` (stereo partly drawn) [Example 12, 4-Chloro-7-[(3S)-3-{4-[4-({4-[2-(2,6-dioxopiperidin-3-yl)-1-oxo-2,3-dihydro-1H-isoindol-5-yl]piperazin-1-yl}methyl)piperidin-1-yl]phenyl}piperidin-1-yl]-1H-indole-3-carbonitrile] were 6 nM, 95%, 12 nM and 97%.
For the compound `Cn1c(C2CCN(CC3CCN(c4ccc([C@@H]5CCCN(c6ccc(Cl)c7c(C#N)c[nH]c67)C5)cc4)CC3)CC2)cc2ccc(N3CCC(=O)NC3=O)cc21` [Example 13, 4-Chloro-7-[(3S)-3-{4-[4-({4-[6-(2,4-dioxo-1,3-diazinan-1-yl)-1-methyl-1H-indol-2-yl]piperidin-1-yl}methyl)piperidin-1-yl]phenyl}piperidin-1-yl]-1H-indole-3-carbonitrile], the DC50 in experiment [1] turned out to be 7 nM; in experiment [2], 6 nM. In addition, the Dmax in experiment [1] is 107%; in experiment [2] it was 109%.
`Cn1c(C2CCN(CC3CCN(c4ccc([C@@H]5CCCN(c6ccc(Cl)c7c(C#N)n[nH]c67)C5)cc4)CC3)CC2)cc2ccc(N3CCC(=O)NC3=O)cc21` [Example 14, 4-Chloro-7-[(3S)-3-{4-[4-({4-[6-(2,4-dioxo-1,3-diazinan-1-yl)-1-methyl-1H-indol-2-yl]piperidin-1-yl}methyl)piperidin-1-yl]phenyl}piperidin-1-yl]-1H-indazole-3-carbonitrile]: in experiment [1], the half-maximal degradation concentration (DC50) turned out to be 6 nM and the Dmax was 107%. Moreover, in experiment [2], it took 9 nM to reach half-maximal degradation (DC50) and the Dmax amounted to 112%.
With `COc1cc(N2CCN(CC3CCN(c4ccc(C5CCN(c6ccc(C)c7c(C#N)c[nH]c67)CC5)cc4)CC3)CC2)cc2c1C(=O)N(C1CCC(=O)NC1=O)C2` (stereo not shown) [Example 15, 7-(4-{4-[4-({4-[2-(2,6-Dioxopiperidin-3-yl)-7-methoxy-1-oxo-2,3-dihydro-1H-isoindol-5-yl]piperazin-1-yl}methyl)piperidin-1-yl]phenyl}piperidin-1-yl)-4-methyl-1H-indole-3-carbonitrile], the figures for the 50% degradation concentration (DC50) in experiment [1] and in experiment [2] were 9 nM and 24 nM, respectively. The Dmax in experiment [1] is 97%; in experiment [2], 85%.
Take `COc1cc(N2CCN(CC3CCN(c4ccc(C5CCN(c6ccc(F)c7c(C#N)c[nH]c67)CC5)cc4)CC3)CC2)cc2c1C(=O)N(C1CCC(=O)NC1=O)C2` (stereo not shown) [Example 20, 7-(4-{4-[4-({4-[2-(2,6-Dioxopiperidin-3-yl)-7-methoxy-1-oxo-2,3-dihydro-1H-isoindol-5-yl]piperazin-1-yl}methyl)piperidin-1-yl]phenyl}piperidin-1-yl)-4-fluoro-1H-indole-3-carbonitrile]: in experiment [1], it took 9 nM to reach half-maximal degradation (DC50) and the Dmax amounted to 94%. Moreover, in experiment [2], the 50% degradation concentration (DC50) was 8 nM and the Dmax was 101%.
As for `N#Cc1c[nH]c2c(N3CCC[C@H](c4ccc(N5CCC(CN6CCN(c7ccc8c(c7)CN(C7CCC(=O)NC7=O)C8=O)CC6)CC5)cc4)C3)ccc(Cl)c12` (stereo partly drawn) [Example 21, 4-Chloro-7-[(3R)-3-{4-[4-({4-[2-(2,6-dioxopiperidin-3-yl)-1-oxo-2,3-dihydro-1H-isoindol-5-yl]piperazin-1-yl}methyl)piperidin-1-yl]phenyl}piperidin-1-yl]-1H-indole-3-carbonitrile], in experiment [1], it took 8 nM to reach half-maximal degradation (DC50) and the Dmax was 92%. Moreover, in experiment [2], half-maximal degradation (DC50) was put at 7 nM and the Dmax amounted to 103%.
For the compound `N#Cc1c[nH]c2c(N3CCC(c4ccc(N5CCN(CC6CCN(c7ccc8c(c7)CN(C7CCC(=O)NC7=O)C8=O)CC6)CC5)cc4)CC3)ccc(F)c12` (stereo not shown) [Example 22], in experiment [1], half-maximal degradation (DC50) was put at 14 nM and the Dmax was determined as 80%. In experiment [2], it took 23 nM to reach half-maximal degradation (DC50) and the Dmax came out at 81%.
In the same order, the values of `N#Cc1c[nH]c2c(N3CCC[C@@H](c4ccc(N5CCC(CN6CCC(n7ccc8c(N9CCC(=O)NC9=O)cccc87)CC6)CC5)cc4)C3)ccc(F)c12` [Example 23, 7-[(3S)-3-{4-[4-({4-[4-(2,4-Dioxo-1,3-diazinan-1-yl)-1H-indol-1-yl]piperidin-1-yl}methyl)piperidin-1-yl]phenyl}piperidin-1-yl]-4-fluoro-1H-indole-3-carbonitrile] are 12 nM, 100%, 57 nM and 94%.
For the compound `N#Cc1c[nH]c2c(N3CCC[C@@H](c4ccc(N5CCC(CN6CCN(c7ccc8c(c7)CN(C7CCC(=O)NC7=O)C8=O)CC6)CC5)cc4)C3)ccc(F)c12` (stereo partly drawn) [Example 24, 7-[(3S)-3-{4-[4-({4-[2-(2,6-dioxopiperidin-3-yl)-1-oxo-2,3-dihydro-1H-isoindol-5-yl]piperazin-1-yl}methyl)piperidin-1-yl]phenyl}piperidin-1-yl]-4-fluoro-1H-indole-3-carbonitrile], in experiment [1], the 50% degradation concentration (DC50) was found to be 6 nM and the Dmax was determined as 100%. In experiment [2], it took 18 nM to reach half-maximal degradation (DC50) and the Dmax stood at 83%.
As to `N#Cc1n[nH]c2c(N3CCC[C@H](c4ccc(N5CCC(CN6CCC(n7ccc8c(N9CCC(=O)NC9=O)cccc87)CC6)CC5)cc4)C3)ccc(Cl)c12` [Example 25, 4-Chloro-7-[(3R)-3-{4-[4-({4-[4-(2,4-dioxo-1,3-diazinan-1-yl)-1H-indol-1-yl]piperidin-1-yl}methyl)piperidin-1-yl]phenyl}piperidin-1-yl]-1H-indazole-3-carbonitrile], the DC50 in experiment [1] came out at 6 nM; in experiment [2], 4 nM. Besides, the Dmax in experiment [1] was 92%; in experiment [2], 104%.
As for `N#Cc1c[nH]c2c(N3CCC[C@H](c4ccc(N5CCC(CN6CCC(n7ccc8c(N9CCC(=O)NC9=O)cccc87)CC6)CC5)cc4)C3)ccc(Cl)c12` [Example 26, 4-Chloro-7-[(3R)-3-{4-[4-({4-[4-(2,4-dioxo-1,3-diazinan-1-yl)-1H-indol-1-yl]piperidin-1-yl}methyl)piperidin-1-yl]phenyl}piperidin-1-yl]-1H-indole-3-carbonitrile], in experiment [1], it took 9 nM to reach half-maximal degradation (DC50) and the Dmax came out at 92%. Besides, in experiment [2], the DC50 worked out at 7 nM and the Dmax amounted to 106%.
Turning to `COc1cc(N2CCN(CCCCOc3ccc(C4CCN(c5ccc(C)c6c(C#N)c[nH]c56)CC4)cc3)CC2)cc2c1C(=O)N(C1CCC(=O)NC1=O)C2` (stereo not shown) [Example 27, 7-{4-[4-(4-{4-[2-(2,6-Dioxopiperidin-3-yl)-7-methoxy-1-oxo-2,3-dihydro-1H-isoindol-5-yl]piperazin-1-yl}butoxy)phenyl]piperidin-1-yl}-4-methyl-1H-indole-3-carbonitrile], the figures for the DC50 in experiment [1] and in experiment [2] were 14 nM and 27 nM, respectively. Besides, the Dmax was determined as 99% in experiment [1] and 75% in experiment [2].
In the same order, the values of `Cc1ccc(N2CCC(c3ccc(OCCCCN4CCN(c5ccc6c(c5)CN(C5CCC(=O)NC5=O)C6=O)CC4)cc3)CC2)c2[nH]cc(C#N)c12` (stereo not shown) [Example 28, 7-{4-[4-(4-{4-[2-(2,6-dioxopiperidin-3-yl)-1-oxo-2,3-dihydro-1H-isoindol-5-yl]piperazin-1-yl}butoxy)phenyl]piperidin-1-yl}-4-methyl-1H-indole-3-carbonitrile] are 5 nM, 23 nM, 96% and 83%.
In the case of `Cc1ccc(N2CCC(c3ccc(OCCCCN4CCC(n5ccc6c(N7CCC(=O)NC7=O)cccc65)CC4)cc3)CC2)c2[nH]cc(C#N)c12` [Example 29, 7-{4-[4-(4-{4-[4-(2,4-Dioxo-1,3-diazinan-1-yl)-1H-indol-1-yl]piperidin-1-yl}butoxy)phenyl]piperidin-1-yl}-4-methyl-1H-indole-3-carbonitrile], the half-maximal degradation concentration (DC50) in experiment [1] came to 79 nM; in experiment [2], 60 nM. Moreover, the results for the Dmax in experiment [1] and in experiment [2] were 94% and 74%, respectively.
For `COc1nc(N2CCN(CC3CCN(c4ccc(C5CCN(c6ccc(C)c7c(C#N)c[nH]c67)CC5)cc4)CC3)CC2)cc2c1C(=O)N(C1CCC(=O)NC1=O)C2` (stereo not shown) [Example 30, 7-(4-{4-[4-({4-[2-(2,6-Dioxopiperidin-3-yl)-4-methoxy-3-oxo-2,3-dihydro-1H-pyrrolo[3,4-c]pyridin-6-yl]piperazin-1-yl}methyl)piperidin-1-yl]phenyl}piperidin-1-yl)-4-methyl-1H-indole-3-carbonitrile], the figures for the half-maximal degradation concentration (DC50) in experiment [1] and in experiment [2] were 25 nM and 83 nM, respectively. In addition, the Dmax came to 98% in experiment [1] and 83% in experiment [2].
